In patent US11072628B2, “Nucleoside analogues for the treatment of parasitic infections” (UNIVERSITEIT GENT, priority 2017, dated 2021):
Where two headings read alike, the source gives them in different places.

Columns and labels:
[1] = Cytotoxicity against MRC-5 fibroblasts; conditions: human, MRC-5 fibroblasts, cytotoxicity
Protocol: Cytotoxicity was assayed against MRC-5 fibroblasts. Results are depicted in Tables 4 and 5.

[2] = system: T. b. rhodesiense STIB-900; assay: In vitro drug susceptibility, T. b. rhodesiense STIB-900 (resazurin); type: cell-based, Trypanosoma brucei rhodesiense; conditions: Trypanosoma brucei, RHODESIENSE
Protocol: (§1) All trypanosome strains were cultured in the standard HMI-9 medium supplemented with 10% fetal bovine serum (FBS) at 37° C. in a 5% CO2 atmosphere.

[3] = system: T. cruzi Tulahuen CL2 β galactosidase strain; assay: T. cruzi Tulahuen CL2 β galactosidase strain on MRC-5SV2 cells (CPRG); type: cell-based, Trypanosoma cruzi; conditions: Trypanosoma cruzi, TULAHUEN, MRC-5 SV2
Protocol: All cultures and assays were conducted at 37° C./5% CO2. […] The results were expressed as % reduction in parasite burdens compared to control wells from which an EC50 was calculated.

[4] = system: T. brucei Squib 427; assay: In vitro drug susceptibility, T. brucei Squib 427 (resazurin); type: cell-based, Trypanosoma brucei brucei; conditions: Trypanosoma brucei
Protocol: as §1

[5] = system: T. vaginalis trophozoites (metronidazole susceptible G3 strain); assay: Trichomonas vaginalis in vitro assay; type: cell-based; conditions: Trichomonas vaginalis, average of 2-5 independent replicates
Protocol: T. vaginalis trophozoites (metronidazole susceptible G3 strain) were grown in vitro in modified Diamond's media (MDM) with 10% heat inactivated horse serum (HIHS) acquired from Gibco Life Technologies. After medium preparation, the pH was adjusted to 6.3-6.4 employing 1.0 M aq. HCl. Parasites cultures were passaged every day by taking 1 mL of cell culture into a 25 mL bottle of fresh media to ensure the cells were kept at the appropriate concentration of ˜2×10^6 cells/mL. The culture flasks were filled completely and tightly capped to provide the cells with an anaerobic environment. The parasites were maintained in incubation at 37° C. When culturing in multiwell plates, the plates were sealed with Nescofilm® and inserted in BD GasPak EZ pouches (BD Diagnostics, UK) in order to create anaerobic conditions. Assays were performed with 5×10^4 trophozoites/well (100 μL) to which compound dilutions were added (100 μL). Outside wells of columns and rows were filled with 200 μL of sterile water. Plates were sealed with Nescofilm® and incubated under anaerobic conditions as described above. After 24 h, 30 μL of assay dye solution (resorufin) was added, and incubated for 1-2 h before being read using Fluostar Optima (BMG Labtech, UK) at an excitation wavelength of 544 nm and an emission wavelength of 620 nm.

[6] = Table 2, average of 2-3 independent replicates
[7] = read-out: T. brucei brucei EC50, Table 1, average of 2-4 independent determinations

| Compound | melting point | EC50 ([1]; MRC-5 EC50, Table 1) [µM] | EC50 ([1]; MRC-5 EC50, Table 2) [µM] | EC50 ([2]; read-out: T. brucei rhod. EC50) [µM] | EC50 [3, 6] [µM] | EC50 [4, 7] [µM] | EC50 ([1]; MRC-5 EC50, Table 4) [µM] | EC50 ([1]; MRC-5 EC50, Table 5) [µM] | EC50 ([5]; Table 6) [µM] | EC50 ([2]; read-out: T.b. rhod. EC50) [µM] | EC50 ([3]; Table 5, average of 2-4 independent replicates) [µM] | EC50 ([4]; read-out: T.b. brucei EC50, Table 4, average of 2-6 independent determinations) [µM] | EC50 ([5]; Table 3) [µM] |
| --- | --- | --- | --- | --- | --- | --- | --- | --- | --- | --- | --- | --- | --- |
| Cc1cc(-c2cn([C@@H]3O[C@H](CO)C[C@H]3O)c3ncnc(N)c23)ccc1Cl [FH10648, 4-amino-5-(3-methyl-4-chlorophenyl)-N7-(3′-deoxy-β-D-ribofuranosyl)-pyrrolo[2,3-d]pyrimidine] | 125 °C | 16.7 | 16.7 | 2.09 | 0.21 | 6.4 |  |  |  |  |  |  |  |
| COc1cc(-c2cn([C@@H]3O[C@H](CO)C[C@H]3O)c3ncnc(N)c23)ccc1Cl [FH10649, 4-amino-5-(3-methoxy-4-chlorophenyl)-N7-(3′-deoxy-β-D-ribofuranosyl)-pyrrolo[2,3-d]pyrimidine] | 208 °C | 17.2 | 17.2 | 0.54 | 0.06 | 2.01 |  |  |  |  |  |  |  |
| Nc1ncnc2c1c(C#Cc1ccccc1)cn2[C@@H]1O[C@H](CO)C[C@H]1O [FH8504, 4-amino-5-phenylethynyl-N7-(3′-deoxy-β-D-ribofuranosyl)-pyrrolo[2,3-d]pyrimidine] | 120 °C | 9.6 | 9.6 | 0.12 | 3.7 | 0.3 |  |  |  |  |  |  |  |
| Nc1ncnc2c1c(-c1ccc([N+](=O)[O-])cc1)cn2[C@@H]1O[C@H](CO)C[C@H]1O [FH9582, 4-amino-5-(4-nitrophenyl)-N7-(3′-deoxy-β-D-ribofuranosyl)-pyrrolo[2,3-d]pyrimidine] | 254 °C (dec.) | > 64 | > 64 | 0.32 | 1.2 | 2.1 |  |  |  |  |  |  |  |
| CCCC#Cc1cn([C@@H]2O[C@H](CO)C[C@H]2O)c2ncnc(N)c12 [FH9610, 4-amino-5-pent-1-yn-N7-(3′-deoxy-β-D-ribfuranosyl)-pyrrolo[2,3-d]pyrimidine] | 127 to 129 °C | > 64 | > 64 | 0.04 | 4.1 | 0.32 |  |  |  |  |  |  |  |
| Nc1ncnc2c1c(-c1ccccc1)cn2[C@@H]1O[C@H](CO)[C@@H](O)[C@H]1O [TH1004, 4-amino-5-phenyl-N7-(β-D-ribofuranosyl)-pyrrolo[2,3-d]pyrimidine] |  |  |  |  |  |  | 56.2 | 56.2 | 0.43 | 4.1 | 3.44 | 32.3 |  |
| Cc1ccc(-c2cn([C@@H]3O[C@H](CO)C[C@H]3O)c3ncnc(N)c23)cc1Cl [FH10644, 4-amino-5-(3-chloro-4-methylphenyl)-N7-(3′-deoxy-β-D-ribofuranosyl)-pyrrolo[2,3-d]pyrimidine] | 135 °C | 17.9 | 17.9 | 5.99 | 0.27 | 4.74 |  |  |  |  |  |  |  |
| Nc1ncnc2c1c(Br)cn2[C@@H]1O[C@H](CSCCO)C[C@H]1O [FH9591, 4-amino-5-bromo-N7-(3′-deoxy-5′-thio-ethan-2-ol-β-D-ribofuranosyl)-pyrrolo[2,3-d]pyrimidine] | 164 °C | 26.5 | 26.5 | 0.71 | 33.8 | 5.05 |  |  |  |  |  |  |  |
| Nc1ncnc2c1c(-c1ccc(C(F)(F)F)cc1)cn2[C@@H]1O[C@H](CO)C[C@H]1O [FH9576, 4-amino-5-(4-trifluoromethylphenyl)-N7-(3′-deoxy-β-D-ribofuranosyl)-pyrrolo[2,3-d]pyrimidine] |  | 40 | 40 | 6.6 | 0.53 | 19.5 |  |  |  |  |  |  | 0.26 |
| Nc1ncnc2c1c(/C=C/c1ccccc1)cn2[C@@H]1O[C@H](CO)C[C@H]1O [FH10660, 4-amino-5-(E-styryl)-N7-(3′-deoxy-β-D-ribfuranosyl)-pyrrolo[2,3-d]pyrimidine] | 170 °C | 49.4 | 49.4 | 0.17 | 6.28 | 1.76 |  |  |  |  |  |  |  |
| Nc1ncnc2c1c(-c1cc(Cl)cc(Cl)c1)cn2[C@@H]1O[C@H](CO)C[C@H]1O [FH10642, 4-amino-5-(3,5-dichlorophenyl)-N7-(3′-deoxy-β-D-ribofuranosyl)-pyrrolo[2,3-d]pyrimidine] | 211 °C | 30.2 | 30.2 | 5.45 | 0.55 | 7.7 |  |  |  |  |  |  |  |
| Cc1ncc([N+](=O)[O-])n1CCO [Metronidazole, reference compound] |  |  |  |  |  |  |  |  |  |  |  |  | 0.53 |
